Source: patent publication EP0587374A2, “Sulfated sterol glycosides and their use against viral infections” (VIROSTAT (NA) NV, priority 1992, dated 1994)
Like-named read-outs stand apart in the source and are kept apart here.

How the values were obtained:
[1] = test system: Peripheral blood lymphocytes; experiment: In vitro cytotoxicity, Trypan Blue exclusion after 3 days of culture; details: 3 days, means of 4 counts
Protocol: Peripheral blood lymphocytes were prepared from normal blood. Cells were cultured for 3 days in complete medium [(RPMI, a commercially available so-called standard salt solution) + 10 % foetal calf serum (FCS) + […]] in the presence/absence of phytohemagglutinin (PHA). Duplicate wells were set up. Incubation was at 37°C and 5 % CO₂.
On the third day, cell viabilities were determined using the Trypan Blue exclusion test.
Those products which were water soluble, were made up at 8 mg/mℓ stocks in sterile distilled water and diluted 1:10 in RPMI medium and again diluted 1:10 directly in the wells containing the cells in complete medium. The final concentrations were thus 80 µg/mℓ. For the lower dilutions, the 8 mg/mℓ stock was diluted 1:2 or 1:4 or 1:8 in water before being diluted in the RPMI medium.
For those products which were DMSO-soluble, the stocks were made'up at 8 mg/mℓ in 100 % DMSO. This stock was diluted 1:10 in 100 % FCS and diluted 1:10 directly in the wells containing the cells in RPMI medium only. The final concentrations were thus 10 % FCS and 1 % DMSO. For the lower dilutions, the 8 mg/mℓ stock was diluted 1:2 or 1:4 or 1:8 with DMSO before the FCS dilution step.
This stock was diluted in water to yield a working stock of 2 mg/mℓ. The 2 mg/ml stock was diluted 1:20 or 1:10 or 1:5 or 1:2.5 in water and again 1:10 in the wells to give the 10, 20, 40 or 80 µg/mℓ final concentrations respectively.

[2] = test concentration 10 µg/mℓ, duration 6 days
[3] = test concentration 25 µg/mℓ, duration 6 days
[4] = test concentration 50 µg/mℓ, duration 6 days

Compound: Cc1cn([C@H]2C[C@H](N=[N+]=[N-])[C@@H](CO)O2)c(=O)[nH]c1=O [AZT, reference compound]
- inhibition of P24 protein production (HIV-1; concentration 10 ng/mℓ, test of Table 3): 100%

Compound: CC[C@H](CC[C@@H](C)[C@H]1CC[C@H]2[C@@H]3CC=C4C[C@@H](O)CC[C@]4(C)[C@H]3CC[C@]12C)C(C)C [BSS, β-Sitosterol, reference compound]
- % Viability ([1]; Cells + PHA + 1.25 µg/mℓ): 89%
- % Viability ([1]; Cells + PHA + 2.5 µg/mℓ): 81%
- % Viability ([1]; Cells + PHA + 5 µg/mℓ): 92%
- % Viability ([1]; Cells + PHA + 10 µg/mℓ): 82%
- % INHIBITION OF P24 PROTEIN PRODUCTION (HIV-1; [2]): 0%
- % INHIBITION OF P24 PROTEIN PRODUCTION (HIV-1; test concentration 10 µg/mℓ, duration 6 days, listed as LL2): no significant inhibition

Compound: CC[C@H](CC[C@@H](C)[C@H]1CC[C@H]2[C@@H]3CC=C4C[C@@H](OS(=O)(=O)O)CC[C@]4(C)[C@H]3CC[C@]12C)C(C)C [BSS-SO₄⁻, β-Sitosteryl sulphate, reference compound]
- % INHIBITION OF P24 PROTEIN PRODUCTION (HIV-1; [2]): 0%
- % INHIBITION OF P24 PROTEIN PRODUCTION (HIV-1; test concentration 10 µg/mℓ, duration 6 days, listed as LL1): no significant inhibition

Compound: CC[C@H](CC[C@@H](C)[C@H]1CC[C@H]2[C@@H]3CC=C4C[C@@H](O[C@@H]5O[C@H](CO)[C@@H](O)[C@H](O)[C@H]5O)CC[C@]4(C)[C@H]3CC[C@]12C)C(C)C [BSSG, β-Sitosteryl β-D-glucoside, reference compound]
- % INHIBITION OF P24 PROTEIN PRODUCTION (HIV-1; [2]): 0%
- % INHIBITION OF P24 PROTEIN PRODUCTION (HIV-1; test concentration 10 µg/mℓ, duration 6 days, listed as LL4): no significant inhibition

Compound: CC(C)CCC[C@@H](C)[C@H]1CC[C@H]2[C@@H]3CC=C4C[C@@H](O)CC[C@]4(C)[C@H]3CC[C@]12C [CHO, Cholesterol, reference compound]
- % INHIBITION OF P24 PROTEIN PRODUCTION (HIV-1; [2]): 3%
- % INHIBITION OF P24 PROTEIN PRODUCTION (HIV-1; test concentration 10 µg/mℓ, duration 6 days, listed as LL5): no significant inhibition

Compound: CC(C)CCC[C@@H](C)[C@H]1CC[C@H]2[C@@H]3CC=C4C[C@@H](OS(=O)(=O)O)CC[C@]4(C)[C@H]3CC[C@]12C [CHO-SO₄⁻, Cholesteryl sulphate, reference compound]
- % INHIBITION OF P24 PROTEIN PRODUCTION (HIV-1; [2]): 0%
- % INHIBITION OF P24 PROTEIN PRODUCTION (HIV-1; test concentration 10 µg/mℓ, duration 6 days, listed as LL6): no significant inhibition

Compound: CC(C)CCC[C@@H](C)[C@H]1CC[C@H]2[C@@H]3CC=C4C[C@@H](O[C@@H]5O[C@H](COS(=O)(=O)[O-])[C@@H](OS(=O)(=O)[O-])[C@H](OS(=O)(=O)[O-])[C@H]5OS(=O)(=O)[O-])CC[C@]4(C)[C@H]3CC[C@]12C.[Na+].[Na+].[Na+].[Na+] [CHOG-(SO₄⁻)₄, Cholesteryl β-D-glucoside tetra-sulphate]
- % INHIBITION OF P24 PROTEIN PRODUCTION (HIV-1; test concentration 12.5 µg/mℓ, duration 4 days): 19%
- % INHIBITION OF P24 PROTEIN PRODUCTION (HIV-1; test concentration 25 µg/mℓ, duration 4 days): 18%
- % INHIBITION OF P24 PROTEIN PRODUCTION (HIV-1; test concentration 50 µg/mℓ, duration 4 days): 49%
- % INHIBITION OF P24 PROTEIN PRODUCTION (HIV-1; test concentration 100 µg/mℓ, duration 4 days): 86%

Compound: C[C@@H]1CC[C@@]2(OC1)O[C@H]1C[C@H]3[C@@H]4CC=C5C[C@@H](O[C@@H]6O[C@H](COS(=O)(=O)[O-])[C@@H](OS(=O)(=O)[O-])[C@H](OS(=O)(=O)[O-])[C@H]6OS(=O)(=O)[O-])CC[C@]5(C)[C@H]4CC[C@]3(C)[C@H]1[C@@H]2C.[Na+].[Na+].[Na+].[Na+] [DG-(SO₄⁻)₄, Diosgenyl β-D-glucoside tetra-sulphate]
- anti-HIV-1 effect (in words) (HIV-1; in terms of P24 protein production, Tables 1-3): marked anti-HIV-1 effects
- % INHIBITION OF P24 PROTEIN PRODUCTION (HIV-1; [3]): 60%
- % INHIBITION OF P24 PROTEIN PRODUCTION (HIV-1; [4]): 100%

Compound: CCCCCCCCCCCCOS(=O)(=O)[O-].[Na+] [SODIUM n-DODECYL SULPHATE, reference compound]
- % INHIBITION OF P24 PROTEIN PRODUCTION (HIV-1; [3]): 0%
- % INHIBITION OF P24 PROTEIN PRODUCTION (HIV-1; [4]): 45%

Compound: CCCCCCCCO[C@@H]1O[C@H](COS(=O)(=O)O)[C@@H](OS(=O)(=O)O)[C@H](OS(=O)(=O)O)[C@H]1OS(=O)(=O)O [n-OCTYL GLUCOSIDE TETRA-SULPHATE, reference compound]
- % INHIBITION OF P24 PROTEIN PRODUCTION (HIV-1; [3]): 0%
- % INHIBITION OF P24 PROTEIN PRODUCTION (HIV-1; [4]): 0%
